Measurements taken from patent US4371536A, “β-Carbolin-3-carboxylic acid derivatives” (A/S Ferrosan, priority 1979, dated 1983).

What was measured:
benzodiazepine receptors = assay: Displacement of 3H-flunitrazepam binding in vitro (rat forebrain); settings: 3H-flunitrazepam 1.0 nM, 0° C.
benzodiazepin receptors = assay: Inhibition of 3H-flunitrazepam binding in vivo (mouse forebrain); settings: mice, s.c.; 3H-flunitrazepam i.v. 15 min later, killed after additional 20 min; 35 min
Protocol: The displacement activity of the compounds of the invention has been determined by determined the IC50 value and ED50 value.
The ED50 value represents the dose (mg/kg) of a test substance which causes the specific binding of flunitrazepam to benzodiazepin receptors in a living brain to be reduced to 50% of the control value. Such an in vivo test is carried out as follows:
Groups of mice are injected with the test substance at different doses and usually subcutaneously. 15 minutes later, ^3 H-flunitrazepam is given intravenously to the mice and after an additional 20 minutes, the mice are killed. Their forebrain membranes are removed and the radioactivity of the forebrain membranes is measured by scintillation counting. The ED50 value is determined from dose-response curves.

mice = assay: Inhibition of aggression in isolated male mice; format: in vivo; settings: Mus musculus, sc, 0.5 h, s.c., 1/2 hour, read-out: ED50 inhibition of agression (1/2h)
Protocol: The inhibition of aggression has been determined on male mice (NMR from Mollegaard, Denmark) having a weight of 20-22 g. The mice are isolated for 3 weeks in plastic cages and when two mice subsequently are brought into the same cage, they will spontaneously and almost instantaneously start fighting. […] J. Pharmacol., 1978, 47, 45-49. The compounds of the invention were administered subcutaneously and orally and the antiaggressive effect after 1/2 hour was determined. Based on the data obtained, the ED50 value has been calculated.

[1] = Inhibition of motor coordination (ataxia) in mice; settings: mouse, in vivo, sc, 30 minutes after s.c. administration, read-out: ED50 Ataxia (Motor incoordination)
Protocol: The inhibition of motor coordination in mice was also studied 30 minutes after subcutaneous administration in accordance with a method described in the literature (Buus Lassen et al, Acta pharmacol. et toxicol., 1971, 39, 1-16).

[2] = Acute toxicity in mice (deaths within 24 hours); settings: mouse, in vivo
Protocol: The acute toxicity in mice was determined by recording the number of deaths within 24 hours.

rats [3] = assay: Inhibition of exploratory motility in rats (sedative effect); format: in vivo; settings: Rattus norvegicus, sc, 0.5 h, 30 min after s.c. administration, first 10 min in novel cage
Protocol: Inhibition of exploratory motility in rodents is a widely used test for sedative effect. A compound of this invention and two well known tranquilizers have been subjected to such a test.
30 Minutes after subcutaneous administration of physiological saline and test substances, rats were transferred to a novel cage and the motility was measured for the first 10 minutes. The ED50 is the dose inhibiting the motility by 50% as compared to the controls.

rats [4] = assay: Motility of rats in familiar cages during rest period (awakening effect); format: in vivo; settings: for motility versus saline control: 4 hours; for behavior during the experimental (rest) period: ethyl ester 20-100 mg/kg s.c., methylamide 20-100 mg/kg p.o., amphetamine s.c.
Protocol: Normal locomotion, grooming and eating occur during the dark period and rest during the light period. If CNS stimulants are given to rats which have stayed in their cages for several hours, a pronounced hypermotility is observed during the light period (Buus Lassen, Psychopharmacologia 1973, 29, 55-64; Kallman and Isaac, Psychopharmacologia 1975, 40, 313-318).
Psysiological saline and test substances were administered s.c. or p.o. to rats kept in familiar cages. The motility was measured for 4 hours (2 periods of 2 hours) after administrations. The motility of groups receiving test substances was compared (Student's t-test) with the motility of the saline-treated control group.

SMILES	IC50 in vitro, inhibition of 3H-flunitrazepam binding (benzodiazepine receptors)	ED50 in vivo, inhibition of 3H-flunitrazepam binding (benzodiazepin receptors)	ED50 (mice)	also measured
CCNC(=O)c1cc2c(cn1)[nH]c1ccccc12 [NH(C2 H5), β-carbolin-3-carboxylic acid N-ethylamide]	0.11 µg/mL	42 mg/kg s.c.	18 mg/kg	TD50 at 0.5 h [1]: > 100 mg/kg; LD50 at 24 h [2]: > 250 mg/kg
CC(C)NC(=O)c1cc2c(cn1)[nH]c1ccccc12 [NH(iso-C3 H7)]	0.15 µg/mL	23 mg/kg s.c.	75 mg/kg	–
O=C(c1cc2c(cn1)[nH]c1ccccc12)N1CCCC1	3.3 µg/mL	> 250 mg/kg s.c.	–	–
NC(=O)CNC(=O)c1cc2c(cn1)[nH]c1ccccc12 [NH(CH2 CONH2)]	0.92 µg/mL	> 250 mg/kg s.c.	–	–
CCN(CC)C(=O)c1cc2c(cn1)[nH]c1ccccc12 [N C2 H5 (C2 H5), β-carbolin-3-carboxylic acid diethylamide]	4.3 µg/mL	82 mg/kg s.c.	35 mg/kg	–
O=C(NCCO)c1cc2c(cn1)[nH]c1ccccc12 [NH(CH2 CH2 OH)]	0.2 µg/mL	56 mg/kg s.c.	–	–
O=C(NCc1ccccc1)c1cc2c(cn1)[nH]c1ccccc12 [NH(CH2 C6 H5)]	0.017 µg/mL	> 250 mg/kg s.c.	–	–
CNC1=Nc2ccc(Cl)cc2C(c2ccccc2)=[N+]([O-])C1 [Chlordiazepoxide, reference compound]	–	–	45 mg/kg	TD50 at 0.5 h [1]: 50 mg/kg; LD50 at 24 h [2]: 700 mg/kg; ED50 (rats [3]): 1.2 mg/kg
CC(N)Cc1ccccc1 (centres unmarked) [Amphetamine, reference compound]	–	–	–	motility versus saline control (rats [4]; 0.5-5 mg/ig s.c.): produced a significant hypermotility; behavior during the experimental (rest) period (rats [4]): continuous, stereotyped sniffing, rearing and licking on the cage walls; behavior during the experimental (rest) period (rats [4]; listed as amphetamine): induced an abnormal behavior which never occurs in saline-treated control rats
O=C(c1cc2c(cn1)[nH]c1ccccc12)N1CCCCC1	0.36 µg/mL	> 250 mg/kg s.c.	–	–
CCCCCOC(=O)c1cc2c(cn1)[nH]c1ccccc12 [OC5 H11, n-pentyl β-carbolin-3-carboxylate]	0.012 µg/mL	> 250 mg/kg s.c.	50 mg/kg	–
CN1C(=O)CN=C(c2ccccc2)c2cc(Cl)ccc21 [Diazepam, reference compound]	–	–	3 mg/kg	ED50 (rats [3]): 0.4 mg/kg; motility versus saline control (rats [4]; 10-20 mg/kg s.c.): did not influence motility
CCOC(=O)c1cc2c(cn1)[nH]c1ccccc12 [OC2 H5, β-carbolin-3-carboxylic acid ethyl ester]	0.0014 µg/mL	60 mg/kg s.c.	4 mg/kg	TD50 at 0.5 h [1]: > 100 mg/kg; LD50 at 24 h [2]: > 500 mg/kg; ED50 (rats [3]): > 100 mg/kg; motility versus saline control (rats [4]; 20-100 mg/kg s.c., Student's t-test): increased the motility significantly (P<0.001); behavior during the experimental (rest) period (rats [4]): appeared more alert than the controls during the experimental period and showed more spells of locomotion, eating and grooming
CN1CCN(C(=O)c2cc3c(cn2)[nH]c2ccccc23)CC1	> 4 µg/mL	> 250 mg/kg s.c.	–	–
CCOC(=O)CNC(=O)c1cc2c(cn1)[nH]c1ccccc12 [NH(CH2 COOC2 H5)]	0.16 µg/mL	> 250 mg/kg s.c.	–	–
O=C(NC1CC1)c1cc2c(cn1)[nH]c1ccccc12 [NH(C3 H5), N'-cyclopropyl-β-carbolin-3-carboxamide]	0.044 µg/mL	38 mg/kg s.c.	–	–
CN(C(=O)c1cc2c(cn1)[nH]c1ccccc12)c1ccccc1 [N CH3 (C6 H5), N-methyl-N-phenyl-β-carbolin-3-carboxamide]	> 4 µg/mL	> 250 mg/kg s.c.	–	–
CCNC(=O)c1cc2c3ccccc3n(C(=O)OCC)c2cn1 [NH(C2 H5), COOC2 H5, 9-carbethoxy β-carbolin-3-carboxylic acid, ethylamide]	0.16 µg/mL	> 100 mg/kg s.c.	–	–
CNC(=O)c1cc2c(cn1)[nH]c1ccccc12 [NH(CH3), β-carbolin-3-carboxylic acid methylamide]	0.1 µg/mL	25 mg/kg s.c.	–	motility versus saline control (rats [4]; 20-100 mg/kg p.o., Student's t-test): increased the motility significantly (P<0.001); behavior during the experimental (rest) period (rats [4]): appeared more alert than the controls during the experimental period and showed more spells of locomotion, eating and grooming
